Values quoted from earlier work in patent publication US7632837B2, “Bicyclic heterocycles as cannabinoid-1 receptor modulators” (Bristol-Myers Squibb Company, priority 2005, dated 2009).

Key:
[1] = chronic administration for two weeks
[2] = 16 week trial period; published Phase IIb data

SMILES | body weight [1] | body weight in human subjects [2]
Cc1c(C(=O)NN2CCCCC2)nn(-c2ccc(Cl)cc2Cl)c1-c1ccc(I)cc1 [AM-251] | substantial body weight reduction | 
Cc1c(C(=O)NN2CCCCC2)nn(-c2ccc(Cl)cc2Cl)c1-c1ccc(Cl)cc1 [SR-141716] |  | dose-dependently reduced body weight
